Reference: patent US10071976B2, “Small molecule fatty acid synthase inhibitors” (Sanford Burnham Prebys Medical Discovery Institute, priority 2014, dated 2018)
Several values for one entry are separate records, joined by “and”; a condition that tells them apart may be missing. Equal entries are not always repeated. Where two headings read alike, the source gives them in different places.

Assays:
FASN-TE = FASN-TE (Homo sapiens, UniProt P49327); assay: In-vitro biochemical assay measuring FAS-TE inhibition (OMFH substrate, fluorescence)
FASN-TE, sequence (P49327 2207-2511 limits assumed): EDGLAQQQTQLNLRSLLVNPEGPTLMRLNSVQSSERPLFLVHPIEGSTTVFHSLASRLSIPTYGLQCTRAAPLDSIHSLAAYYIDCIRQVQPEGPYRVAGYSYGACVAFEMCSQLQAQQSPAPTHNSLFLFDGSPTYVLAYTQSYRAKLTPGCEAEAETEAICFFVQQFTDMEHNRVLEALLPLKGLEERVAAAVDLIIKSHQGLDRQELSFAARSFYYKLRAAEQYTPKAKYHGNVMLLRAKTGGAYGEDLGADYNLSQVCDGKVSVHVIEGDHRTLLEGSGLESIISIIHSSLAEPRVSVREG
Method: Min wells: Substrate+No enzyme+DMSO, Max wells: Substrate+Enzyme+DMSO, Sample wells: Substrate+Enzyme+Test compounds, Reference compound: Orlistat (make a fresh 10 mM stock in DMSO each time). 384-well black, low-volume plate (Greiner #784076)
Assay Protocol: • 1) ECHO transfer 160 nL of 125× Compound (or DMSO for control wells) per well. • 2) For Max and Sample wells: Add 10 μL of Enzyme (2×; 1.8 μM) prepared in RXN Buffer. For Min wells: Add 10 μL of RXN Buffer (No Enzyme). • 3) For all wells: Add 10 μL of Substrate (2×; 20 μM) prepared in diH2O+10% DMSO. • 4) Centrifuge plate for 1 minute at 1,000 rpm. • 5) Measure fluorescence every 5 minutes for 1-1.5 hours using the BMG POLARstar (ex 485 nm/em 520 nm; Gain=1015; 25 flashes). • 6) All volumes can be adjusted but the final DMSO concentration should be kept at about 6%.
Data Analysis: • 1) Calculate slopes and express as % Activity (Min wells=0%; Max wells=100%). • 2) Then, using Prism, calculate the IC50 values.

[1] = system: prostate cancer PC-3 cells; assay: De novo palmitate synthesis from 13C-glucose in whole cells (GC-MS); assay type: cell-based
Method: The ability of compounds to block biosynthesis of palmitate in whole cells (prostate cancer PC-3 cells) was measured by feeding cells isotopically labeled glucose (^13C-glucose) and measuring the incorporation of ^13C into palmitate by GC-MS.
Prostate cancer PC-3 cell were incubated with 20 μM of FASN inhibitors and labeled with [U-13C]-glucose for 24 h, pH 7.8. The incorporation of ^13C into palmitate from labeled glucose was determined by extracting fatty acids and resolving them by GC-MS. The mass distributions for fatty acid methyl esters for C16:0 (palmitate) were corrected for isotope natural abundance, and the corrected isotope patterns were used to calculate the labeling of acetyl-CoA in palmitate based on a binomial probability distribution of the incorporation of labeled acetyl units into the fatty acid chain.

[2] = system: other serine hydrolases in the lysate; assay: Competition with activity-based probe FP-PEG-TAMRA in PC-3 whole cell lysate: other serine hydrolases; assay type: binding, human; settings: PC-3 lysate, 20 μM final, pH 7.8
Method: Studies were conducted to determine the selectivity of compound 16 for FASN over other human thioesterases. The ability of the compounds to bind the FASN holoenzyme was tested by assessing their ability to compete for the binding of an activity-based probe that covalently attaches to the active site of the FASN thioesterase. Thioesterases are members of the serine hydrolase family, which also includes a number of other types of enzymes including proteases, dipeptidyl peptidases, epoxide hydrolases, etc. To help assess the selectivity of compound 16, an activity-based probe polyethyleneglycol-6-carboxytetramethyl-rhodamine (FP-PEG-TAMRA) that binds covalently to the catalytic serine of all serine hydrolases was used. These studies were done by assessing the ability of compound 16 to compete for the binding of the activity-based probe in whole cell lysates. Several analogs of compound 16 were tested in this assay using lysates of the prostate tumor line (PC3), which expresses FASN, along with numerous other serine hydrolases. The PC-3 lysate was incubated with 8 different FASN inhibitors, including compounds 1, 16 and 97. Then the activity-based probe (FP-PEG-TAMRA) was added to each sample to label the serine hydrolases in the lysate.

ACOT4 = biological target: T1, ACOT4 (Homo sapiens, UniProt Q8N9L9); assay: FP-PEG-TAMRA labeling of recombinant ACOT4; assay type: binding; settings: recombinant enzyme, 20 μM final, pH 7.8
T1 sequence (Q8N9L9 1-421): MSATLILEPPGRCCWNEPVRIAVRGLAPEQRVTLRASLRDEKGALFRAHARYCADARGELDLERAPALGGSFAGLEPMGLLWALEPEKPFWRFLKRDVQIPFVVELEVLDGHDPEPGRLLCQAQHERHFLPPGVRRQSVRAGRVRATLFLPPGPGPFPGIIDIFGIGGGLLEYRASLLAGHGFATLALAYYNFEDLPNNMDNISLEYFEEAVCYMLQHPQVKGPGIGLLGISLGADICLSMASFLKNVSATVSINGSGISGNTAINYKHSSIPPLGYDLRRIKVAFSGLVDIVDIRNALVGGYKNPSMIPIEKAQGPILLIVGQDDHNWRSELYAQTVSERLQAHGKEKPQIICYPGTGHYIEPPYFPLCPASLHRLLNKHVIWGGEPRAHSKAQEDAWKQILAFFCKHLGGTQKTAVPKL
Method: Additionally, studies were performed to test the selectivity of Compounds 1, 16, 22, and 37 for the FASN thioesterase over its most closely related human homolog, the enzyme called ACOT4 (see FIG. 3). Both proteins were mixed and pretreated with the compound (20 μM final, pH 7.8) before addition of the fluorescent activity probe FP-PEG-TAMRA. Respective fluorescence of the bands was detected on a Hitachi flatbed scanner and a greyscale version used for quantitative analysis using ImageJ. Recombinant forms of each enzyme were incubated with compound 16, compound 1, compound 37, and compound 22. FP-TAMRA was included in this mixture to label the active site of the FASN thioesterase and ACOT4. […] These findings further attest to the high degree of selectivity of compounds 1, 16, 37 and 22 for the FASN thioesterase.

[3] = Aqueous solubility in pION's buffer; assay type: physicochemical
[4] = Aqueous solubility in 1x PBS, pH 7.4; assay type: physicochemical; settings: pH 7.4, aqueous buffer
[5] = Chemical stability in 1x PBS; assay type: physicochemical
PAMPA permeability = assay type: in vitro ADME; settings: for Papp: PAMPA, read-out: PAMPA Permeability, Pe
Method: The PAMPA (Parallel Artificial Membrane Permeability Assay) assay was used as an in vitro model of passive, transcellular permeability. An artificial membrane immobilized on a filter was placed between a donor and acceptor compartment. At the start of the test, drug was introduced in the donor compartment. Following the permeation period, the concentration of drug in the donor and acceptor compartments was measured using UV spectroscopy.

[6] = Hepatic microsome stability, human; assay type: in vitro ADME
Description: The microsomal stability assay is commonly used to rank compounds according to their metabolic stability. This assay addresses the pharmacologic question of how long the parent compound will remain circulating in plasma within the body.

in vitro = settings: human

For `CCC(CC)C(=O)Nc1nc(-c2ccc(S(=O)(=O)N3CCOCC3)cc2)cs1` [Compound 16, 2-Ethyl-N-(4-(4-(morpholinosulfonyl)phenyl)thiazol-2-yl)butanamide], the IC50 (FASN-TE) was 334 nM, the “inhibition of palmitate synthesis in whole cells” value [1] was “inhibitory activity” and the “de novo palmitate synthesis/DMSO (%)” value ([1]; 20 μM, [U-13C]-glucose 24 h, pH 7.8, relative to DMSO control) was 50%. The “competition for activity based labeling of other serine hydrolases” value [2] was “no competition”, the “activity labeling of ACOT4” value (ACOT4) was “without effect” and the solubility ([3]; aqueous buffer, pH 5.0) was 0.19 µg/mL and 0.45 µM. For the same compound, the solubility ([3]; pH 6.2, aqueous buffer) was 0.06 µg/mL and 0.14 µM, the solubility ([3]; pH 7.4, aqueous buffer) was 0.13 µg/mL and 0.31 µM and the solubility [4] was 0.02 µg/mL and 0.05 µM. The “Chemical Stability in 1x PBS pH 7.4 (% remaining after 48 hrs)” value ([5]; 1x PBS pH 7.4, 48 hrs) was 100/100%, the “Chemical Stability in 1x PBS pH 7.4 with 50% ACN (% remaining after 48 hrs)” value ([5]; with 50% ACN, 48 hrs) was 100/100% and the Papp (PAMPA permeability; Donor pH 5.0, Acceptor pH 7.4) was 914 ×10⁻⁶ cm/s. For the same compound, the Papp (PAMPA permeability; Donor pH 6.2, Acceptor pH 7.4) was 961 ×10⁻⁶ cm/s, the Papp (PAMPA permeability; pH 7.4, Donor pH 7.4, Acceptor pH 7.4) was 653 ×10⁻⁶ cm/s and the “PAMPA permeability” value (PAMPA permeability; across a range of pH of the donor compartment) was “very good permeability”. The “Hepatic Microsome Stability (% Remaining at 1 hr)” value ([6]; Human, 1 hr) was 4.93%, the “liver microsome stability” value ([6]; human liver microsomes) was “poor stability” and the CC50 (in vitro) was > 50000 nM.
